Measurements: paper PMC11541474, “Toward New Therapeutics for Visceral Leishmaniasis: Efficacy and Mechanism of Action of Amides Inspired by Gibbilimbol B” (ACS Omega, 2024)

What was measured:
Assay type in all cases: cell-based, Leishmania (L.) infantum
[1] = system: L. (L.) infantum intracellular amastigotes; test: ex-vivo assay using intracellular amastigotes of L. (L.) infantum; settings: for S.I. amastigote (selectivity index): CC50 against NCTC cells/EC50 against amastigotes; for EC50: Leishmania infantum, L. (L.) infantum intracellular amastigotes, read-out: Ec50 Amastigote (μm) ± SD
Method: Evaluation of in vitro activity against promastigote and amastigote forms of L. (L.) infantum was performed as previously reported assays.[40]−[43] The CC50 and EC50 values were calculated using sigmoidal dose–response curves using Graph Pad Prism 5.0 software. One-way ANOVA testing with Tukey’s multiple comparison tests were used for evaluation of the statistical significance (p-value) of differences between the samples, which were tested in duplicate and all assays were repeated at least twice.

[2] = system: L. (L.) infantum promastigotes; test: mitochondrial membrane electric potential, JC-1 flow cytometry; settings: 9 at 141.5 μM, 10 at 110.1 μM, 4 h exposure
Source text: Mitochondria perform several vital functions and play an essential role in maintaining cellular balance, thus making them a potential target for new drugs against Leishmania spp. Mitochondria are composed of two interconnected membranes and play crucial roles in energy production (ATP), calcium regulation, and the induction of programmed cell death among other processes.[22],[23] Prolonged changes in mitochondrial membrane potential can lead to irreversible cellular damage.[24] The mitochondrial membrane potential of L. (L.) infantum promastigotes (Figure 6) was evaluated by flow cytometry using JC-1.[25] […] The compound carbonyl cyanide m-chlorophenyl […] (CCCP) was used to induce maximum depolarization (positive control), whereas untreated parasites served as a negative control. […] Both alterations may have contributed to the observed mitochondrial dysfunction and might explain the reduction in ROS levels after treatment that was observed. […] JC-1 dye fluorescence was measured by flow cytometry (excitation and emission at 488 and 530 nm, respectively) after incubation. […] Fluorescence is reported as the quotient of channels BL2/BL1.**: p = 0.0001. […] Fluorescence was measured with excitation and emission filters at 488 and 530 nm (BL-1)/574 nm (BL-2), respectively. […]

[3] = system: L. (L.) infantum promastigotes; test: intracellular Ca2+ levels, Fura-2 AM; settings: 9 at 141.5 μM, 10 at 110.1 μM
Source text: Compounds that affect intracellular Ca^2+ balance in Leishmania may cause changes in the mechanism of transport of these ions in trypanosomatids.[26] In Leishmania spp., Ca^2+ regulation involves the endoplasmic reticulum, the mitochondria, and the acidocalcisomes;[27],[28] increases in this intracellular ion can trigger processes such as apoptosis that led to the death of the parasite.[29] The Fura-2 AM marker was used to measure intracellular Ca^2+ levels in Leishmania (L.) infantum promastigotes. Fura-2 has a high affinity for Ca^2+, which results in the formation of fluorescent intracellular complexes that are proportional to intracellular Ca^2+ levels.[30] […] (Triton X-100) at all monitored times. […] Compound 10 induced similar levels of fluorescence to those induced by compound 9 but at a slower rate, as these levels were observed after 200 min of incubation.  Figure 7 Intracellular Ca^2+ levels in L. (L.) infantum treated with (A) compound 9 (141.5 μM) or (B) compound 10 (110.1 μM). Results were obtained using the Fluo-4 AM dye (excitation and emission at 485 and 535 nm, respectively). Untreated and treated with Triton X-100 (0.5% v/v) parasites were used as negative and positive controls, respectively. Fluorescence is represented as a percentage relative to the untreated control at 0 min (100%).***p < 0.0001. Measurements of intracellular Ca^2+ levels were conducted as previously reported.[49] Briefly, promastigotes were pretreated with Fura-2 AM (Molecular Probes) in PBS, washed and treated with compounds 9 (141.5 μM) or 10 (110.1 μM). Fluorescence was measured using a microplate reader (FilterMax […]-Mode, Molecular Devices) with excitation and emission at 360 and 500 nm, respectively. Untreated and treated parasites (0.5% Triton X-100) were used as negative and positive controls, respectively.

[4] = system: L. (L.) infantum promastigotes; test: acidocalcisome alterations, acridine orange; settings: 9 at 141.5 μM (20 min), 10 at 110.1 μM (significant from 60 min onward)
Source text: Acidocalcisomes are intracellular organelles that are characterized by acidity and high calcium concentrations due to the proton and calcium pumps.[33] In trypanosomatids, these organelles are rich in short-chain polyphosphates and occupy a small proportion (1 to 2%) of each cell’s volume.[34] In these parasites, the acidocalcisomes are responsible for capturing and storing calcium in large quantities, which is essential for cellular functioning.[35] In our study, we investigated possible changes resulting from treatment with compounds in acidocalcisomes, especially concerning intracellular calcium. Acridine orange was used as a fluorescent probe to evaluate changes in the acidocalcisomes of L. (L.) infantum promastigotes. Alkalinization of these organelles results in the release of the probe, altering the fluorescence.[36] […] These effects were compared with those of the positive (nigericin) and negative (untreated parasites) controls. Figure 8 Acidocalcisome alkalization in L. (L.) infantum treated with compounds 9 (141.5 μM - A) or 10 (110.1 μM - B). […] Fluorescence is represented as a percentage of the fluorescence in the positive control with nigericin at 20 min (100%). ***p = 0.003, **p = 0.0021, **p = 0.05. […] The fluorescence was measured in a spectrofluorimeter with excitation an emission at […], respectively. […]

Row | Structure (SMILES) | S.I. amastigote (selectivity index) [1] | EC50 [1] [µM] | mitochondrial membrane potential (JC-1) compared with untreated promastigotes [2] | incubation time at which Ca^2+ levels approached those of the positive control (Triton X-100) [3] [min] | intracellular Ca^2+ concentration compared with untreated parasites [3] | effect on acidocalcisomes (acridine orange fluorescence) [4]
1 | CCCCC(CC)CNC(=O)c1ccc(Cl)cc1 (stereo not drawn) [Compound 9, N-(2-Ethylhexyl)-4-chlorobenzamide] | >15.7 | 12.7 ± 4.9 | significant depolarization of the mitochondrial membrane | ≤ 20 | increased the intracellular Ca^2+ concentration | alkalinization of the acidocalcisomes
2 | CCCCC(CC)CNC(=O)c1ccc([N+](=O)[O-])cc1 (stereo not drawn) [Compound 10, N-(2-Ethylhexyl)-4-nitrobenzamide] | >16.4 | 12.2 ± 7.2 | not statistically significant | 200 | increased the intracellular Ca^2+ concentration | progressive and continuous acidification of these organelles
